According to US20190100534A1, “Cephem Compounds with Latent Reactive Groups” (Gladius Pharmaceuticals, Inc., priority 2017, published 2019):

Legend:
Assay type in all cases: cell-based
[1] = tested on: Pseudomonas aeruginosa (PA); assay: MIC determination; conditions: Pseudomonas aeruginosa, 18 h, read-out: Minimum Inhibitory Concentrations, PA
Procedure: (§1) Sterile technique was used throughout these experiments. Suspensions of organisms were removed from storage (−80° C.) and partially thawed. Partially thawed organisms (1 μL) were inoculated into 3 mL sterile LB Broth in a sterile culture tube and capped, then cultured at 37° C. with shaking for 4-5 hours until the optical density at 600 nm (OD600) was greater than 0.1 on a single beam spectrophotometer.
(§2) The concentration of organisms was adjusted to 0.08-0.1 OD600 (0.5 McFarland units) by dilution with sterile cation-adjusted Meuller-Hinton (CAMH) broth. The suspensions were used within 30 minutes of preparation.
(§3) A stock solution was made of each test compound by measuring 6.4 mg of the compound on an analytical balance and dissolving it in DMSO (1 mL) to get a transparent solution. The solutions were stored at −20° C. and thawed prior to use.
(§4) Sterile CAMH broth (200 μL) containing 20 μM Apo-Transferrin was pipetted into the first row of 8 columns of a sterile, round-bottomed, transparent, 96-well microplate using an 8-channel pipette equipped with sterile tips. One hundred μL was pipetted into the wells of the remaining 11 rows.
(§5) With an 8-channel pipette equipped with sterile tips, 100 μL of the first row solution was transferred to the second row and mixed. The process was repeated for the second to third rows and continued through row 11. One hundred μL from row 11 was removed and discarded so that all 12 rows contained 100 μL. Row 12 contained no compound and rows 1-11 contained 64, 32, 16, 8, 4, 2, 1, 0.5, 0.25, 0.125, […] of a given compound.
(§6) Inoculant suspensions (0.5 μL) were added to the 12 wells of each column. The plates were then covered and incubated at 37° C. overnight for 18 hours.
(§7) For each organism the MIC was determined by identifying the transparent well with the lowest test compound concentration.

[2] = tested on: Pseudomonas aeruginosa PA (RR-1); assay: MIC determination; conditions: Pseudomonas aeruginosa, 18 h, read-out: Minimum Inhibitory Concentrations, PA (RR-1)
Procedure: as §1, §2, §3, §4, §5, §6, §7

[3] = tested on: Pseudomonas aeruginosa PA (RR-2); assay: MIC determination; conditions: Pseudomonas aeruginosa, 18 h, read-out: Minimum Inhibitory Concentrations, PA (RR-2)
Procedure: as §1, §2, §3, §4, §5, §6, §7

[4] = tested on: Pseudomonas aeruginosa PA (URMC-2); assay: MIC determination; conditions: Pseudomonas aeruginosa, 18 h, read-out: Minimum Inhibitory Concentrations, PA (URMC-2)
Procedure: as §1, §2, §3, §4, §5, §6, §7

[5] = tested on: Pseudomonas aeruginosa PA (URMC-3); assay: MIC determination; conditions: Pseudomonas aeruginosa, 18 h, read-out: Minimum Inhibitory Concentrations, PA (URMC-3)
Procedure: as §1, §2, §3, §4, §5, §6, §7

[6] = tested on: Pseudomonas aeruginosa PA-RR-(980151052); assay: MIC determination; conditions: Pseudomonas aeruginosa, 18 h, read-out: Minimum Inhibitory Concentrations, PA-RR-(980151052)
Procedure: as §1, §2, §3, §4, §5, §6, §7

[7] = tested on: Pseudomonas aeruginosa PA-RR-(98023895); assay: MIC determination; conditions: Pseudomonas aeruginosa, 18 h, read-out: Minimum Inhibitory Concentrations, PA-RR-(98023895)
Procedure: as §1, §2, §3, §4, §5, §6, §7

[8] = tested on: Pseudomonas aeruginosa PA-RR-(G7294437); assay: MIC determination; conditions: Pseudomonas aeruginosa, 18 h, read-out: Minimum Inhibitory Concentrations, PA-RR-(G7294437)
Procedure: as §1, §2, §3, §4, §5, §6, §7

[9] = tested on: Pseudomonas aeruginosa PA-RR-(G7304100); assay: MIC determination; conditions: Pseudomonas aeruginosa, 18 h, read-out: Minimum Inhibitory Concentrations, PA-RR-(G7304100)
Procedure: as §1, §2, §3, §4, §5, §6, §7

[10] = tested on: Pseudomonas aeruginosa PA-RR-(G7305586); assay: MIC determination; conditions: Pseudomonas aeruginosa, 18 h, read-out: Minimum Inhibitory Concentrations, PA-RR-(G7305586)
Procedure: as §1, §2, §3, §4, §5, §6, §7

[11] = tested on: Pseudomonas aeruginosa PA-RR-(G8062859); assay: MIC determination; conditions: Pseudomonas aeruginosa, 18 h, read-out: Minimum Inhibitory Concentrations, PA-RR-(G8062859)
Procedure: as §1, §2, §3, §4, §5, §6, §7

[12] = tested on: Pseudomonas aeruginosa PA-RR-(purple Fre D); assay: MIC determination; conditions: Pseudomonas aeruginosa, CAMH broth, 20 μM Apo-Transferrin, 37° C., 18 hours, read-out: Minimum Inhibitory Concentrations, PA-RR-(purple Fre D)
Procedure: as §1, §2, §3, §4, §5, §6, §7

E. coli J53 Alone = assay: MIC determination, isogenic E. coli strains
Procedure: as §1, §2, §3, §4, §5, §6, §7
(§8) The gene sequence for each beta-lactamase enzyme was synthesized and inserted into the pBC-SK(+) plasmid by GenScript, a commercial service. E. coli J53 was transformed with each plasmid via electroporation and resistant transformants were selected on agar plates containing 50 micrograms/mL ampicillin. The selected transformants were stored at −80 degrees C. in 20% glycerol.

[13] = tested on: Isogenic E. coli J58 strain carrying DHA-1; assay: MIC determination, isogenic E. coli strains; conditions: Escherichia coli, 18 h, read-out: Mimimum Inhibitory Concentrations, DHA-1
Procedure: as §1, §2, §3, §4, §5, §6, §7, §8

[14] = tested on: Isogenic E. coli J58 strain carrying TEM-26; assay: MIC determination, isogenic E. coli strains; conditions: Escherichia coli, 18 h, read-out: Mimimum Inhibitory Concentrations, TEM-26
Procedure: as §1, §2, §3, §4, §5, §6, §7
TEM-26 (Group 2be beta-lactamase, hydrolyzes extended spectrum cephalosporins and monobactams), [25];
as §8

[15] = tested on: Isogenic E. coli J58 strain carrying SHV-1; assay: MIC determination, isogenic E. coli strains; conditions: Escherichia coli, 18 h, read-out: Mimimum Inhibitory Concentrations, SHV-1
Procedure: as §1, §2, §3, §4, §5, §6, §7
SHV-1 (Class A, Group 2b beta-lactamase, hydrolyzes penicillins and early cephalosporins);
as §8

[16] = tested on: Isogenic E. coli J58 strain carrying CTX-M-14; assay: MIC determination, isogenic E. coli strains; conditions: Escherichia coli, 18 h, read-out: Mimimum Inhibitory Concentrations, CTX-M-14
Procedure: as §1, §2, §3, §4, §5, §6, §7
(§9) CTX-M-14 and CTX-M-15 (Class A, Group 2be beta-lactamases, hydrolyzes extended spectrum cephalosporins and monobactams);
as §8

[17] = tested on: Isogenic E. coli J58 strain carrying CTX-M-15; assay: MIC determination, isogenic E. coli strains; conditions: Escherichia coli, 18 h, read-out: Mimimum Inhibitory Concentrations, CTX-M-15
Procedure: as §1, §2, §3, §4, §5, §6, §7, §9, §8

[18] = tested on: Isogenic E. coli J58 strain carrying KPC-2; assay: MIC determination, isogenic E. coli strains; conditions: Escherichia coli, 18 h, read-out: Mimimum Inhibitory Concentrations, KPC-2
Procedure: as §1, §2, §3, §4, §5, §6, §7
(§10) KPC-2 and KPC-3 (Class A, Group 2f, carbapenemases);
as §8

[19] = tested on: Isogenic E. coli J58 strain carrying KPC-3; assay: MIC determination, isogenic E. coli strains; conditions: Escherichia coli, 18 h, read-out: Mimimum Inhibitory Concentrations, KPC-3
Procedure: as §1, §2, §3, §4, §5, §6, §7, §10, §8

[20] = tested on: Isogenic E. coli J58 strain carrying NDM-1; assay: MIC determination, isogenic E. coli strains; conditions: Escherichia coli, 18 h, read-out: Mimimum Inhibitory Concentrations, NDM-1
Procedure: as §1, §2, §3, §4, §5, §6, §7
NDM-1 (Group 3a carbapenemase, broad spectrum divalent Zn^++ metallo-Beta-Lactamase);
as §8

[21] = tested on: Isogenic E. coli J58 strain carrying VIM-2; assay: MIC determination, isogenic E. coli strains; conditions: Escherichia coli, 18 h, read-out: Mimimum Inhibitory Concentrations, VIM-2
Procedure: as §1, §2, §3, §4, §5, §6, §7
VIM-2 (Group 3a carbapenemase, metallo-beta-lactamase); and
as §8

[22] = tested on: Isogenic E. coli J58 strain carrying IMP-1; assay: MIC determination, isogenic E. coli strains; conditions: Escherichia coli, 18 h, read-out: Mimimum Inhibitory Concentrations, IMP-1
Procedure: as §1, §2, §3, §4, §5, §6, §7
IMP-1 (Group 3a carbapenemase, metallo-beta-Lactamase).
as §8

`CC[N+]1(Cc2ccc(C=CC3=C(C(=O)O)N4C(=O)[C@@H](NC(=O)/C(=N\OC(C)(C)C(=O)O)c5csc(N)n5)[C@H]4SC3)cc2)CCc2cc(O)c(O)cc2C1` (mixture of isomers) [Compound 423, 2-(4-((E/Z)-2-((6R,7R)-7-((Z)-2-(2-aminothiazol-4-yl)-2-(((2-carboxypropan-2-yl)oxy)imino)acetamido)-2-carboxy-8-oxo-5-thia-1-azabicyclo[4.2.0]oct-2-en-3-yl)vinyl)benzyl)-2-ethyl-6,7-dihydroxy-1,2,3,4-tetrahydroisoquinolin-2-ium] gave an MIC [1] of 2 µg/mL, an MIC [2] of 2 µg/mL and an MIC [3] of 2 µg/mL. It also gave an MIC [4] of 2 µg/mL, an MIC [5] of at most 0.06 µg/mL and an MIC [6] of 2 µg/mL. The MIC [7] was 8 µg/mL, the MIC [8] was 0.5 µg/mL and the MIC [9] was at most 0.06 µg/mL. For the same molecule, the MIC [10] was 8 µg/mL, the MIC [11] was 2 µg/mL and the MIC [12] was 1 µg/mL. For the same molecule, the MIC (E. coli J53 Alone; Escherichia coli, J53ALONE, 18 h, read-out: Mimimum Inhibitory Concentrations, J53 Alone) was 0.25 µg/mL, the “Mimimum Inhibitory Concentrations, J53 Alone” value (E. coli J53 Alone; J53 Alone, Table 4-2, CAMH broth, 20 μM Apo-Transferrin, 37° C., 18 hours) was 0.25 microgram/mL and the MIC [13] was 1 µg/mL. The MIC [14] was 2 µg/mL, the MIC [15] was 2 µg/mL and the MIC [16] was 2 µg/mL. The MIC [17] was 2 µg/mL, the MIC [18] was 8 µg/mL and the MIC [19] was 4 µg/mL. It also gave an MIC [20] of over 64 µg/mL, an MIC [21] of 0.5 µg/mL and an MIC [22] of 32 µg/mL.
